Patent US20220380347A1, “INHIBITORS OF CYSTEINE PROTEASES AND METHODS OF USE THEREOF” (Pardes Biosciences, Inc., priority 2020, published 2022)
Like-named read-outs stand apart in the source and are kept apart here.

Assays:
229E Mpro = 229E Mpro (Human coronavirus 229E, UniProt P0C6X1); test: 229E Mpro enzymatic assay (standard methods, SARS-CoV2 Mpro assay given as exemplary); assay type: biochemical, human coronavirus (HCov) 229E
How it was run: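 Run by standard methods, with the SARS-CoV-2 Mpro protocol given as the model: E. coli-expressed C-His6 protease at 25 nM and substrate at 25 μM (Km 13.5 μM). Buffer pH 7.3 with 5 mM TCEP and 0.1% BSA; % inhibition versus controls fitted to variable-slope log(inhibitor)-response for IC50.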

HCov OC43 = test: HCoV OC43 cytopathic effect (CPE) assay, CellTiter Glo; assay type: cell-based, human coronavirus (HCov) OC43
[1] = molecular target: COVID-19 (nCoV-2019, SARS-CoV2) Mpro (Severe acute respiratory syndrome coronavirus 2, UniProt P0DTD1); test: COVID-19 (nCoV-2019, SARS-CoV2) Mpro enzymatic assay; assay type: biochemical; conditions: 25 nM Mpro, 25 μM substrate; read-out: COVID-19 Mpro IC50
[2] = Betacoronavirus 1, OC43, read-out: OC43 IC50 (uM) MEDIAN, median
[3] = read-out: OC43 IC50 (uM) MEDIAN, median

229E Mpro, sequence (P0C6X1 2966-3267): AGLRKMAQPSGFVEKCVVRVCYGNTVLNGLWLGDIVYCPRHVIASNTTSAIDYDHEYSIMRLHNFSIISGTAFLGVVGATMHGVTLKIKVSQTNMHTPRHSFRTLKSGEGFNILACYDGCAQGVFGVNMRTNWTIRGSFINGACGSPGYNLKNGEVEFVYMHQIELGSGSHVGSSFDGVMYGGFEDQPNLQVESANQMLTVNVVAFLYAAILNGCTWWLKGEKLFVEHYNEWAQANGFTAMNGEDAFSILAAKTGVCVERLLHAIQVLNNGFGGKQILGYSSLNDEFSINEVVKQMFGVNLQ

| Structure (SMILES) | EC50 (229E Mpro; 229E Mpro EC50) [nM] | IC50 (HCov OC43; [2]) [µM] | IC50 [1] [nM] | EC50 (229E Mpro; read-out: 229E Mpro EC50) [nM] | IC50 (HCov OC43; [3]) [µM] |
| --- | --- | --- | --- | --- | --- |
| CC(C)(C)c1ccc(N(C(=O)[C@H]2[C@H](F)CCN2C#N)C(C(=O)NC2CCC(F)(F)CC2)c2cncc(F)c2)cc1 (single isomer, unassigned) [1212 Isomer 1] | < 2000 | < 2 | < 2000 | – | – |
| CC(C)(C)c1ccc(N(C(=O)[C@H]2[C@H](F)CCN2C#N)C(C(=O)NC2CCC(F)(F)CC2)c2cncc(F)c2)cc1 (single isomer, unassigned) [1212 Isomer 2] | – | – | < 2000 | < 2000 | < 2 |
| CO[C@@H]1C[C@H](C(=O)N(c2ccc(C(C)(C)C)cc2)C(C)(C(=O)NC2CCCCC2)c2cccnc2)N(C#N)C1 (single isomer, unassigned) [1230 Isomer 1] | 2000 to 10000 | – | > 30000 | – | > 30 |
| CO[C@@H]1C[C@H](C(=O)N(c2ccc(C(C)(C)C)cc2)C(C)(C(=O)NC2CCCCC2)c2cccnc2)N(C#N)C1 (single isomer, unassigned) [1230 Isomer 2] | < 2000 | – | < 2000 | – | < 2 |
| CO[C@@H]1C[C@H](C(=O)N(c2ccc(C(C)(C)C)cc2)C(C)(C(=O)NC2CCC(F)(F)CC2)c2cccnc2)N(C#N)C1 (single isomer, unassigned) [1232 Isomer 1] | 2000 to 10000 | 2 to 10 | 2000 to 10000 | – | – |
| CO[C@@H]1C[C@H](C(=O)N(c2ccc(C(C)(C)C)cc2)C(C)(C(=O)NC2CCC(F)(F)CC2)c2cccnc2)N(C#N)C1 (single isomer, unassigned) [1232 Isomer 2] | < 2000 | – | < 2000 | – | < 2 |
| CO[C@@H]1C[C@H](C(=O)N(c2ccc(S(F)(F)(F)(F)F)cc2)C(C)(C(=O)NC2CCC(F)(F)CC2)c2cccnc2)N(C#N)C1 (single isomer, unassigned) [1259 Isomer 1] | < 2000 | 2 to 10 | 2000 to 10000 | – | – |
| CO[C@@H]1C[C@H](C(=O)N(c2ccc(S(F)(F)(F)(F)F)cc2)C(C(=O)NC2CCC(F)(F)CC2)c2cncc(F)c2)N(C#N)C1 (single isomer, unassigned) [1265 Isomer 1] | < 2000 | < 2 | < 2000 | – | – |
| CO[C@@H]1C[C@H](C(=O)N(c2ccc(S(F)(F)(F)(F)F)cc2)C(C(=O)NC2CCC(F)(F)CC2)c2cncc(F)c2)N(C#N)C1 (single isomer, unassigned) [1265 Isomer 2] | – | – | < 2000 | < 2000 | < 2 |
| N#CN1C[C@@H](OCc2ccccc2)C[C@@H]1C(=O)N(c1ccc(S(F)(F)(F)(F)F)cc1)C(C(=O)NC1CCC(F)(F)CC1)c1cncc(F)c1 (single isomer, unassigned) [1280 Isomer 1] | < 2000 | < 2 | < 2000 | – | – |
| N#CN1C[C@@H](OCc2ccccc2)C[C@@H]1C(=O)N(c1ccc(S(F)(F)(F)(F)F)cc1)C(C(=O)NC1CCC(F)(F)CC1)c1cncc(F)c1 (single isomer, unassigned) [1280 Isomer 2] | 2000 to 10000 | – | > 30000 | – | 2 to 10 |
| CO[C@@H]1C[C@H](C(=O)N(c2ccc(S(F)(F)(F)(F)F)cc2F)C(C(=O)NC2CCC(F)(F)CC2)c2cccnc2)N(C#N)C1 (single isomer, unassigned) [1288 Isomer 1] | < 2000 | < 2 | < 2000 | – | – |
| CO[C@@H]1C[C@H](C(=O)N(c2ccc(S(F)(F)(F)(F)F)cc2F)C(C(=O)NC2CCC(F)(F)CC2)c2cccnc2)N(C#N)C1 (single isomer, unassigned) [1288 Isomer 2] | – | – | < 2000 | < 2000 | 2 to 10 |
| N#CN1C[C@H](O)C[C@@H]1C(=O)N(c1ccc(S(F)(F)(F)(F)F)cc1F)C(C(=O)NC1CCC(F)(F)CC1)c1cccnc1 (single isomer, unassigned) [1288a Isomer 1] | < 2000 | < 2 | < 2000 | – | – |
| N#CN1C[C@H](O)C[C@@H]1C(=O)N(c1ccc(S(F)(F)(F)(F)F)cc1F)C(C(=O)NC1CCC(F)(F)CC1)c1cccnc1 (single isomer, unassigned) [1288a Isomer 2] | – | – | 2000 to 10000 | < 2000 | 2 to 10 |
| N#CC1(C(=O)N(c2ccc(S(F)(F)(F)(F)F)cc2)C(C(=O)NC2CCC(F)(F)CC2)c2cncc(F)c2)CC1 (single isomer, unassigned) [1289 Isomer 1, 1-cyano-N-[2-[(4,4-difluorocyclohexyl)amino]-1-(5-fluoro-3-pyridyl)-2-oxo-ethyl]-N-[4-(pentafluoro-λ^6-sulfanyl)phenyl]cyclopropanecarboxamide] | > 30000 | > 30 | > 30000 | – | – |

| Structure (SMILES) | EC50 (229E Mpro; 229E Mpro EC50) [nM] | IC50 (HCov OC43; [2]) [µM] | IC50 [1] [nM] | EC50 (229E Mpro; read-out: 229E Mpro EC50) [nM] | IC50 (HCov OC43; [3]) [µM] |
| --- | --- | --- | --- | --- | --- |
| N#CC1(C(=O)N(c2ccc(S(F)(F)(F)(F)F)cc2)C(C(=O)NC2CCC(F)(F)CC2)c2cncc(F)c2)CC1 (single isomer, unassigned) [1289 Isomer 2, 1-cyano-N-[2-[(4,4-difluorocyclohexyl)amino]-1-(5-fluoro-3-pyridyl)-2-oxo-ethyl]-N-[4-(pentafluoro-λ^6-sulfanyl)phenyl]cyclopropanecarboxamide] | – | – | > 30000 | > 30000 | > 30 |
| CO[C@@H]1C[C@H](C(=O)N(c2ccc(S(F)(F)(F)(F)F)cc2)C(C(=O)NCC2(C)CCCN(C(=O)OC(C)(C)C)C2)c2cccnc2)N(C#N)C1 (single isomer, unassigned) [1290 Isomer 1] | < 2000 | 2 to 10 | < 2000 | – | – |
| CO[C@@H]1C[C@H](C(=O)N(c2ccc(S(F)(F)(F)(F)F)cc2)C(C(=O)NCC2(C)CCCN(C(=O)OC(C)(C)C)C2)c2cccnc2)N(C#N)C1 (single isomer, unassigned) [1290 Isomer 2] | 2000 to 10000 | – | 10000 to 30000 | – | 2 to 10 |
| CO[C@@H]1C[C@H](C(=O)N(c2ccc(S(F)(F)(F)(F)F)cc2)C(C)(C(=O)NC2CCC(F)(F)CC2)c2cnccn2)N(C#N)C1 (single isomer, unassigned) [1299 Isomer 1] | < 2000 | 2 to 10 | 2000 to 10000 | – | – |
| CO[C@@H]1C[C@H](C(=O)N(c2ccc(S(F)(F)(F)(F)F)cc2)C(C)(C(=O)NC2CCC(F)(F)CC2)c2cnccn2)N(C#N)C1 (single isomer, unassigned) [1299 Isomer 2] | – | – | < 2000 | < 2000 | < 2 |
| CO[C@@H]1C[C@H](C(=O)N(c2ccc(S(F)(F)(F)(F)F)cc2)C(C(=O)NC(C)C2CCCCN2C(=O)OC(C)(C)C)c2cccnc2)N(C#N)C1 (single isomer, unassigned) [1303 Isomer 1] | < 2000 | – | 2000 to 10000 | – | 2 to 10 |
| CO[C@@H]1C[C@H](C(=O)N(c2ccc(S(F)(F)(F)(F)F)cc2)C(C(=O)NC(C)C2CCCCN2C(=O)OC(C)(C)C)c2cccnc2)N(C#N)C1 (single isomer, unassigned) [1303 Isomer 2.1] | 2000 to 10000 | – | 2000 to 10000 | – | 10 to 30 |
| CO[C@@H]1C[C@H](C(=O)N(c2ccc(S(F)(F)(F)(F)F)cc2)C(C(=O)NC(C)C2CCCCN2C(=O)OC(C)(C)C)c2cccnc2)N(C#N)C1 (single isomer, unassigned) [1303 Isomer 2.2] | < 2000 | – | < 2000 | – | < 2 |
| CO[C@@H]1C[C@H](C(=O)N(c2ccc(S(F)(F)(F)(F)F)cc2)C(C(=O)NC(C)C2CCCCN2C(=O)OC(C)(C)C)c2cccnc2)N(C#N)C1 (single isomer, unassigned) [1303 Isomer 2] | < 2000 | – | < 2000 | – | < 2 |
| CO[C@@H]1C[C@H](C(=O)N(c2ccc(S(F)(F)(F)(F)F)cc2)C(C(=O)NC(C)C2CCCCN2C(=O)OC(C)(C)C)c2cccnc2)N(C#N)C1 (single isomer, unassigned) [1303 Isomer 3.1] | < 2000 | – | < 2000 | – | < 2 |
| CO[C@@H]1C[C@H](C(=O)N(c2ccc(S(F)(F)(F)(F)F)cc2)C(C(=O)NC(C)C2CCCCN2C(=O)OC(C)(C)C)c2cccnc2)N(C#N)C1 (single isomer, unassigned) [1303 Isomer 3.2] | 10000 to 30000 | – | > 30000 | – | > 30 |
| CO[C@@H]1C[C@H](C(=O)N(c2ccc(S(F)(F)(F)(F)F)cc2)C(C(=O)NC(C)C2CCCCN2C(=O)OC(C)(C)C)c2cccnc2)N(C#N)C1 (single isomer, unassigned) [1303 Isomer 3] | < 2000 | – | < 2000 | – | < 2 |
| Cc1nc[nH]c1C(C(=O)NC1CCC(F)(F)CC1)N(C(=O)[C@H]1C[C@@](C)(O)CN1C#N)c1ccc(S(F)(F)(F)(F)F)cc1 (single isomer, unassigned) [1324 Isomer 1] | 10000 to 30000 | – | > 30000 | – | > 30 |
| Cc1nc[nH]c1C(C(=O)NC1CCC(F)(F)CC1)N(C(=O)[C@H]1C[C@@](C)(O)CN1C#N)c1ccc(S(F)(F)(F)(F)F)cc1 (single isomer, unassigned) [1324 Isomer 2] | – | – | 10000 to 30000 | 10000 to 30000 | 2 to 10 |
| C[C@H](NC(=O)C(c1cncc(F)c1)N(C(=O)[C@H]1C[C@@](C)(O)CN1C#N)c1ccc(S(F)(F)(F)(F)F)cc1)c1ccccc1 (single isomer, unassigned) [1328 Isomer 1] | < 2000 | < 2 | < 2000 | – | – |
| C[C@H](NC(=O)C(c1cncc(F)c1)N(C(=O)[C@H]1C[C@@](C)(O)CN1C#N)c1ccc(S(F)(F)(F)(F)F)cc1)c1ccccc1 (single isomer, unassigned) [1328 Isomer 2] | – | – | 2000 to 10000 | < 2000 | 2 to 10 |
